Values after ≈ are worked out from the molar mass of the structure shown. Like-named read-outs stand apart in the source and are kept apart here. Marks after values point to notes of the source that are not given here.
What was measured:
human adenovirus 5 [1] = tested on: human adenovirus 5
in vitro = details: African green monkey
human adenovirus 5 [2] = assay: organism not typed; details: Vero
[3] = tested on: influenza virus A/California/04/2009; format: in vivo, mice
[4] = tested on: influenza virus A/Puerto Rico/8/34 (H1N1)
MDCK = assay: 50% cytotoxic concentration, cell line used for influenza virus; details: PR8 (influenza virus) section
[5] = tested on: influenza virus A/Puerto Rico/8/34 (H1N1); format: in vivo, Balb/c mice; details: Group 2: Tamiflu 20 mg/kg once a day intragastrically
mu receptors = mu receptors (Homo sapiens, UniProt P35372); details: metabolite of Dalargin; cited from earlier work
Chain of mu receptors (P35372 whole entry): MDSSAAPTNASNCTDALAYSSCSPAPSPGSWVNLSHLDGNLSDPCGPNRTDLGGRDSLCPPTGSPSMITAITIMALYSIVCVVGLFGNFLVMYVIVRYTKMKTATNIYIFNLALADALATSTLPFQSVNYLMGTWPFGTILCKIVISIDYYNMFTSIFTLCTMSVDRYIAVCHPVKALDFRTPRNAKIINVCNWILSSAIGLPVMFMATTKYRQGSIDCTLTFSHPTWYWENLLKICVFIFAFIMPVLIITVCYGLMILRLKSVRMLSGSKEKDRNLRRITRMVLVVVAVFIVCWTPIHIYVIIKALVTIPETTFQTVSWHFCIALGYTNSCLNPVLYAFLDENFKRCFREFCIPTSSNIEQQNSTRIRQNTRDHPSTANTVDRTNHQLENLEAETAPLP

[6] = Group 3: Arbidol 130 mg/kg intragastrically once a day, therapeutic
[7] = Group 3: Arbidol 130 mg/kg intragastrically once a day, therapeutic, 30 animals
[8] = Group 2: Ingavirin 15 mg/kg intragastrically once a day, therapeutic
[9] = Group 2: Ingavirin 15 mg/kg intragastrically once a day, therapeutic, 30 animals

Nc1nc2c(ncn2COCCO)c(=O)[nH]1 [Aciclovir]
SI (human adenovirus 5 [1]; CC50/IC50, Ad5 (adenovirus)): 1 | Antiviral properties (in words) (human adenovirus 5 [1]; adenovirus, Vero): did not exhibit antiviral properties | CC50 (in vitro): > 30 µg/mL | IC50 (human adenovirus 5 [2]): > 30 µg/mL

CCOC(=O)c1c(CSc2ccccc2)n(C)c2cc(Br)c(O)c(CN(C)C)c12 [Arbidol]
Mortality, % [3, 6]: 70.00% | Protective index, % [3, 6]: 27.59% | Mortality by day 5 [3, 7]: 2 | Mortality by day 6 [3, 7]: 2 | Mortality by day 7 [3, 7]: 7 | Mortality by day 8 [3, 7]: 5 | Mortality by day 9 [3, 7]: 3 | Mortality by day 10 [3, 7]: 2 | Residue [3, 7]: 9

O=C(O)CCCC(=O)NCCc1c[nH]cn1 [Ingavirin]
Mortality, % [3, 8]: 53.33% | Protective index, % [3, 8]: 44.83% | Mortality by day 6 [3, 9]: 4 | Mortality by day 7 [3, 9]: 6 | Mortality by day 8 [3, 9]: 3 | Mortality by day 9 [3, 9]: 2 | Mortality by day 10 [3, 9]: 1 | Residue [3, 9]: 14 | Mortality by day 5 ([3]; mouse, in vivo): 3 | Mortality by day 6 ([3]; mouse, in vivo): 4 | Mortality by day 7 ([3]; mouse, in vivo): 4 | Mortality by day 8 ([3]; mouse, in vivo): 7 | Mortality by day 9 ([3]; mouse, in vivo): 4 | Mortality by day 10 ([3]; mouse, in vivo): 2 | Mortality, % ([3]; mouse, in vivo): 80.00% | Protective index, % ([3]; mouse, in vivo): 17.24% | Residue ([3]; mouse, in vivo): 6

CC(N)C12CC3CC(CC(C3)C1)C2 (stereo not shown) [Remantadin]
SI ([4]; CC50/IC50, PR8 (influenza virus)): 5 | IC50 ([4]; PR8 (influenza virus), MDCK): 11 µg/mL (≈ 61.3 µM) | Antiviral properties (in words) ([4]; influenza virus, MDCK): did not exhibit antiviral properties | CC50 (MDCK): 64 µg/mL (≈ 357 µM)

CCOC(=O)C1=C[C@@H](OC(CC)CC)[C@H](NC(C)=O)[C@@H](N)C1 [Tamiflu, oseltamivir]
Mortality, % [5]: 10.00% | Protective index, % [5]: 88.46% | Mortality by day 9 ([5]; 30 animals): 2 | Mortality by day 10 ([5]; 30 animals): 1 | Residue ([5]; 30 animals): 27*

Tyr-D-Ala-Gly-Phe
Affinity to mu receptors (mu receptors): exhibits affinity to mu receptors
